Publication PMC12516728, “Harnessing the Estradienone Scaffold to Develop Dual GPBAR1 and LIFR Modulators for Liver Fibrosis” (Journal of Medicinal Chemistry, 2025)
Read-outs that look alike come from different tables or passages of the source.

How the values were obtained:
LIFR = target: T1, LIFR (Homo sapiens, UniProt P42702); assay: Luciferase reporter (transactivation) assay on HepG2 cells transfected with LIFR; format: cell-based; conditions: relative to LIF as 100%, mean ± SD
T1 construct: expressed in transfected cells; host or cells: HepG2
T1 sequence (P42702 45-1097): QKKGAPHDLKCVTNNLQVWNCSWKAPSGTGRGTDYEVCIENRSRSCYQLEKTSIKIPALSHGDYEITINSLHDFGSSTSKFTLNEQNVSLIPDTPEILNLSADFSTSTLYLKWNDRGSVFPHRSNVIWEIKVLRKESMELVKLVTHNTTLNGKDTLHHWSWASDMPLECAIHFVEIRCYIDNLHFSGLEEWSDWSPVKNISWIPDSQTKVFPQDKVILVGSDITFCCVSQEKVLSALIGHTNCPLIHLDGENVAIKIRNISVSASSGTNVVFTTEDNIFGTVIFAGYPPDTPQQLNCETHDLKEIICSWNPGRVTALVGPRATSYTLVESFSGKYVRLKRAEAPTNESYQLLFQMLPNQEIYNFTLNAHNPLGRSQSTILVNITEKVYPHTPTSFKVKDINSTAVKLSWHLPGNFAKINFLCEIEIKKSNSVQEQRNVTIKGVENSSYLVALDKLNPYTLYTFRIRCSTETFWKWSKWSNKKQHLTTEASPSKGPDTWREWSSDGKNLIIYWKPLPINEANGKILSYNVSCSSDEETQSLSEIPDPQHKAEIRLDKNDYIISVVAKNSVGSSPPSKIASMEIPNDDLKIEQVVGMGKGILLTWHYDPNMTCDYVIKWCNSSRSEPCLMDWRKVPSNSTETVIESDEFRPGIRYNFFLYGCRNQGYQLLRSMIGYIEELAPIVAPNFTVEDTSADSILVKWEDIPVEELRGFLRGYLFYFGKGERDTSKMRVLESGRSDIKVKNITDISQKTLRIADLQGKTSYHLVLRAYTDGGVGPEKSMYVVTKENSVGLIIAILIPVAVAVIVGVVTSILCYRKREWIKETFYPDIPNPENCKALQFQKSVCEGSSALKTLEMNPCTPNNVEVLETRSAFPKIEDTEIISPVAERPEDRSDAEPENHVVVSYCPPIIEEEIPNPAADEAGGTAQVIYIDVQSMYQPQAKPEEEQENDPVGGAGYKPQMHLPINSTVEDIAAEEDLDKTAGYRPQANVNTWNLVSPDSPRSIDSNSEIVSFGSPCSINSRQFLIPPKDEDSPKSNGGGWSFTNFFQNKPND
Procedure: (§1) Hek293T cells, obtained from ATCC (Manassas, VA, USA), were cultured in a D-MEM medium (Sigma-Merk Life Science S.r.l., Milan, Italy) enriched with 10% fetal bovine serum, 1% L-glutamine, and 1% penicillin/streptomycin. HEPG2 cells, also from ATCC, were grown in an MEM medium (Euroclone, reference ECB2071L) supplemented with 10% fetal bovine serum (Euroclone, reference ECS5000L), 1% L-glutamine (Euroclone, reference ECB3000D), and 1% penicillin/streptomycin (Euroclone, reference ECB3001D). All cultures were maintained in a humidified environment with 5% CO2 at 37 °C. Additionally, it was confirmed that the cells were free from Mycoplasma contamination, as verified using the Mycoplasma PCR Detection Kit (Aurogene, reference G238).
(§2) The luciferase reporter gene assay protocol takes place over four days. On the first day, HEPG2 or HEK293T cells are seeded in a 24-well plate at a density of 7.5 × 10^4 cells/well for HEPG2 or 2.5 × 10^4 cells/well for HEK293T. On the second day, cells are transiently transfected, preparing a separate mix for each receptor. To assess the phosphorylation of STAT3 signaling, HEPG2 cells were transfected with 200 ng of the reporter vector containing the Pgl4.47 response element, along with 100 ng each of LIFR, IL6ST (gp130), and pGL4.70 (Promega, Madison, WI), a vector encoding the human Renilla gene. The following day, the cells were stimulated with 10 ng/mL LIF, either alone or in combination with 2o at concentrations of 0.1, 1, 10, 25, and 50 μM, to generate a dose–response curve. For GPBAR1 agonism, HEK293T cells were transfected with 200 ng of the reporter vector pG29-CRE-LUC, 150 ng of pcmvsport-hTGR5, and 150 ng of pGL4.70, the human Renilla gene. The following day, cells were stimulated with 10 μM TLCA alone as a positive control and compound 2o at concentrations of 1 and 10 nM, as well as 0.1, 1, 2.5, 5, 10, 20, and 30 μM, to generate a dose–response curve. On the final day, cellular lysates were analyzed for luciferase and Renilla activities using the Dual-Luciferase Reporter Assay System (Promega, Madison, WI). pLuminescence was measured with a Glomax 20/20 luminometer (Promega, Madison, WI), and luciferase activities were normalized to Renilla activities.

[1] = target: T2, LIF-LIFR interaction (recombinant human LIFR His-Tag / biotinylated LIF) (Homo sapiens, UniProt P42702); assay: Cell-free AlphaScreen assay of LIF-LIFR interaction; format: binding; conditions: for inhibition at 10 µM: read-out: % LIFR inhibition (10 μM); for inhibition at 50 µM: read-out: % LIFR inhibition (50 μM)
T2 construct: purchased Sino Biological (LIFR); R&D Systems (LIF)
T2 sequence (P42702 45-833 limits assumed): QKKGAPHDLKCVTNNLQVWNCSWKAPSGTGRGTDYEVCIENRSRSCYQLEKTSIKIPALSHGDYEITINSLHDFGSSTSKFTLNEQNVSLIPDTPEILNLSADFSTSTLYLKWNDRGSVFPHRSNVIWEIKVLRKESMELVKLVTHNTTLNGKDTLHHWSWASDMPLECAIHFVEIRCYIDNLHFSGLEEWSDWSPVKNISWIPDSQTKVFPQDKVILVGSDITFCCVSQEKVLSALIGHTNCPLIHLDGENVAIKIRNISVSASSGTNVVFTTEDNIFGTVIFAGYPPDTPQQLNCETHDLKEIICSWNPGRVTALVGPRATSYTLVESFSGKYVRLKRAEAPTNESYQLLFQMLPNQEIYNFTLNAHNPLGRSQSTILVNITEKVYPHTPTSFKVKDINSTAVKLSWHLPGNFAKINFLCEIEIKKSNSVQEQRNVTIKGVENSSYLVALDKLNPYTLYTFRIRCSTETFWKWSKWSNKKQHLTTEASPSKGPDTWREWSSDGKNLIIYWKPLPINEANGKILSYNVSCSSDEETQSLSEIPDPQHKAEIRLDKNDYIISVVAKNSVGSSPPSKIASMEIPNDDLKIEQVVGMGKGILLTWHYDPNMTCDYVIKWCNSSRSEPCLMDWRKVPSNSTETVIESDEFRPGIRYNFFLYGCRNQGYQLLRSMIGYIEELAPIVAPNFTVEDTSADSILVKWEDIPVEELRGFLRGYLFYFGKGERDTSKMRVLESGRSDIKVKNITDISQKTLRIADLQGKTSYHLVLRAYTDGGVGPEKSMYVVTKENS
Procedure: Recombinant human LIFR (His-Tag) and LIF (biotinylated) were purchased from Sino Biologicals (Sino Biological Europe GmbH, Dusseldorf, Germany) and R&D Systems (Abingdon, UK), respectively, and both were reconstituted as required by the manufacturer. Inhibition of LIFR/LIF binding was measured by AlphaScreen, in white, low-volume, 384-well AlphaPlates (PerkinElmer, Waltham, MA, USA) using a final volume of 15 μL and an assay buffer containing 25 mM Hepes (pH 7.4), 100 mM NaCl, and 0.005% Kathon. The concentration of DMSO in each well was maintained at 5% v/v. […] Then, streptavidin donor beads were added (final concentration 20 ng/μL), and the plate was incubated in the dark for 2 h and then read in an EnSpire Alpha multimode plate reader (PerkinElmer, Waltham, MA, USA). […] Each concentration was tested in triplicate (N = 3). When present, outliers were removed, resulting in N = 2. Data, reported as averaged intensity values ± standard deviation and N, were exploited to fit the curves through GraphPad Prism 8.

GPBAR1 = target: T3, GPBAR1 (Homo sapiens, UniProt Q8TDU6); assay: Luciferase reporter (transactivation) assay on HEK293T cells transfected with GPBAR1; format: cell-based; conditions: HEK-293T, relative to TLCA (10 μM) as 100%, mean ± SD, na = not active, read-out: GPBAR1 eff % (10 μM)
T3 construct: expressed in transfected cells; host or cells: HEK293T
T3 sequence (Q8TDU6 1-330): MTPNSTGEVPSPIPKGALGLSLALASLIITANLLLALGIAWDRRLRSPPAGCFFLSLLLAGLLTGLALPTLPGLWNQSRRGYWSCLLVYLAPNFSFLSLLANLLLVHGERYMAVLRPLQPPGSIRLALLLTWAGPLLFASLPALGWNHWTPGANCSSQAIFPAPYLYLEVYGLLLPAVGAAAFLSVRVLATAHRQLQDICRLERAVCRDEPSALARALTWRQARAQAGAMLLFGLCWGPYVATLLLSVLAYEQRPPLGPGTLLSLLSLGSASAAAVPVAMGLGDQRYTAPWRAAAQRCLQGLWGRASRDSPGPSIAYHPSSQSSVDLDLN
Procedure: as §1, §2

inhibition at 10 µM ([1]; 10 μM, LIF-LIFR signal without compound set as 100% interaction, mean ± SD) [%]	inhibition at 50 µM ([1]; 50 μM, LIF-LIFR signal without compound set as 100% interaction, mean ± SD) [%]	IC50 ([1]; inhibition of LIF-LIFR interaction, ± SD, read-out: IC50) [µM]	SMILES	inhibition at 10 µM (LIFR) [%]	IC50 [1] [µM]	inhibition at 10 µM [1] [%]	inhibition at 50 µM [1] [%]	Emax at 10 µM (GPBAR1) [%]
			C[C@]12C[C@H](Cc3ccc(O)cc3)C3=C4CCC(=O)C=C4CC[C@H]3[C@@H]1CCC2=O [Compound 1e, 11β-(4-Hydroxybenzyl)estra-4,9-dien-3,17-dione]	29.1 ± 1.4	45.6 ± 10.5	29.3 ± 6.7	35.1 ± 13	9 ± 4
			C[C@]12C[C@H](c3ccccc3)C3=C4CCC(=O)C=C4CC[C@H]3[C@@H]1CCC2=O [Compound 1c, 11β-Phenylestra-4,9-dien-3,17-dione]	76.8 ± 6.7	26.9 ± 3.12	34.3 ± 11.2	40.5 ± 4.18	35 ± 1.5
			C[C@]12C[C@H](c3ccc(-c4cccc(C(=O)O)c4)cc3)C3=C4CCC(=O)C=C4CC[C@H]3[C@@H]1CCC2=O [Compound 2t]	38.7 ± 0.6	24.8 ± 2.8	22.8 ± 5.1	62.3 ± 7.3	20.4 ± 1.4
70.5 ± 3.7	94.6 ± 7.3	0.366 ± 0.063	CC#C[C@]1(O)CC[C@H]2[C@@H]3CCC4=CC(=O)CCC4=C3[C@@H](c3ccc(N(C)C)cc3)C[C@@]21C [Mifepristone, mifepristone, reference compound]					
			C[C@]12C[C@H](c3ccc(-c4ccc(Br)nc4)cc3)C3=C4CCC(=O)C=C4CC[C@H]3[C@@H]1CCC2=O [Compound 2d]	88.8 ± 3.4	5.54 ± 1.39	42.1 ± 2.3	64.4 ± 7.5	
			CN(C)c1ccc([C@H]2C[C@]3(C)C(=O)CC[C@H]3[C@@H]3CCC4=CC(=O)CCC4=C32)cc1 [Compound 1b]	104 ± 2.5	0.535 ± 0.209	60 ± 14.7	84.3 ± 1.4	21.7 ± 0.3
			C[C@]12C[C@H](c3ccc(C4CC4)cc3)C3=C4CCC(=O)C=C4CC[C@H]3[C@@H]1CCC2=O [Compound 1g, 11β-(4-Cyclopropylphenyl)-estra-4,9-dien-3,17-dione]	51.1 ± 1.4	9.42 ± 2.32	45.1 ± 1.9	62.1 ± 6.1	16.5 ± 1.5
			C[C@]12C[C@H](c3ccc(-c4ccccc4)cc3)C3=C4CCC(=O)C=C4CC[C@H]3[C@@H]1CCC2=O [Compound 1a]	33.8 ± 3.7	1.42 ± 0.2	62.4 ± 9.2	76.4 ± 4.1	44.8 ± 5.1
			COC(=O)c1cccc(-c2ccc([C@H]3C[C@]4(C)C(=O)CC[C@H]4[C@@H]4CCC5=CC(=O)CCC5=C43)cc2)c1 [Compound 2s]	80.8 ± 0.9	0.159 ± 0.06	63.6 ± 4.1	74.3 ± 14.1	> 50
			COc1ccc(C[C@H]2C[C@]3(C)C(=O)CC[C@H]3[C@@H]3CCC4=CC(=O)CCC4=C23)cc1 [Compound 1d, 11β-(4-Methoxybenzyl)estra-4,9-dien-3,17-dione]	92 ± 7	43.1 ± 4.6	26.5 ± 6.2	41.1 ± 8	
			C[C@]12C[C@H](c3ccc(I)cc3)C3=C4CCC(=O)C=C4CC[C@H]3[C@@H]1CCC2=O [Compound 1f, 11β-(4-Iodophenyl)estra-4,9-dien-3,17-dione]	89.9 ± 1.2	9.78 ± 1.75	45.4 ± 1.3	61.3 ± 7.5	
